Source: ChEMBL document CHEMBL3994647, “Synthesis and in vitro cytotoxic evaluation of new 1H-benzo[d]imidazole derivatives of dehydroabietic acid” (Bioorg Med Chem Lett, 2017)

Key:
SMMC-7721 [1] = test: Cytotoxicity against human SMMC7721 cells assessed as reduction in cell viability after 48 hrs by MTT assay; assay type: functional, cell-based; settings: SMMC-7721, 48 h
HepG2 = test: Cytotoxicity against human HepG2 cells assessed as reduction in cell viability after 48 hrs by MTT assay; assay type: functional, cell-based; settings: HepG2, 48 h
L02 = test: Cytotoxicity against human LO2 cells assessed as reduction in cell viability after 48 hrs by MTT assay; assay type: cell-based; settings: L02, 48 h
SMMC-7721 [2] = test: Cell cycle arrest in human SMMC7721 cells assessed as accumulation at G2/M phase at 0.18 uM after 24 hrs by propidium iodide staining based flow cytometry (reference value: 3.43%); assay type: functional
SMMC-7721 [3] = test: Cell cycle arrest in human SMMC7721 cells assessed as accumulation at G0/G1 phase at 0.18 uM after 24 hrs by propidium iodide staining based flow cytometry (reference value: 72.89%); assay type: functional
SMMC-7721 [4] = test: Cell cycle arrest in human SMMC7721 cells assessed as accumulation at S phase at 0.18 uM after 24 hrs by propidium iodide staining based flow cytometry (reference value: 23.68%); assay type: functional
SMMC-7721 [5] = test: Cell cycle arrest in human SMMC7721 cells assessed as accumulation at G0/G1 phase at 0.36 uM after 24 hrs by propidium iodide staining based flow cytometry (reference value: 72.89%); assay type: functional
SMMC-7721 [6] = test: Cell cycle arrest in human SMMC7721 cells assessed as accumulation at S phase at 0.36 uM after 24 hrs by propidium iodide staining based flow cytometry (reference value: 23.68%); assay type: functional
SMMC-7721 [7] = test: Cell cycle arrest in human SMMC7721 cells assessed as accumulation at G2/M phase at 0.36 uM after 24 hrs by propidium iodide staining based flow cytometry (reference value: 3.43%); assay type: functional
SMMC-7721 [8] = test: Cell cycle arrest in human SMMC7721 cells assessed as accumulation at G0/G1 phase at 0.72 uM after 24 hrs by propidium iodide staining based flow cytometry (reference value: 72.89%); assay type: functional
SMMC-7721 [9] = test: Cell cycle arrest in human SMMC7721 cells assessed as accumulation at S phase at 0.72 uM after 24 hrs by propidium iodide staining based flow cytometry (reference value: 23.68%); assay type: functional
SMMC-7721 [10] = test: Cell cycle arrest in human SMMC7721 cells assessed as accumulation at G2/M phase at 0.72 uM after 24 hrs by propidium iodide staining based flow cytometry (reference value: 3.43%); assay type: functional
SMMC-7721 [11] = test: Cell cycle arrest in human SMMC7721 cells assessed as accumulation at G2/M phase after 24 hrs by propidium iodide staining based flow cytometry; assay type: functional
SMMC-7721 [12] = test: Induction of apoptosis in human SMMC7721 cells after 24 hrs by Annexin V-APC/7-AAD staining based flow cytometry; assay type: functional, cell-based
SMMC-7721 [13] = test: Induction of apoptosis in human SMMC7721 cells assessed as live cells at 0.18 uM after 24 hrs by Annexin V-APC/7-AAD staining based flow cytometry (reference value: 81.07%); assay type: functional
SMMC-7721 [14] = test: Induction of apoptosis in human SMMC7721 cells assessed as early apoptotic cells at 0.18 uM after 24 hrs by Annexin V-APC/7-AAD staining based flow cytometry (reference value: 7.44%); assay type: functional
SMMC-7721 [15] = test: Induction of apoptosis in human SMMC7721 cells assessed as late apoptotic cells at 0.18 uM after 24 hrs by Annexin V-APC/7-AAD staining based flow cytometry (reference value: 10.72%); assay type: functional
SMMC-7721 [16] = test: Induction of apoptosis in human SMMC7721 cells assessed as necrotic cells at 0.18 uM after 24 hrs by Annexin V-APC/7-AAD staining based flow cytometry (reference value: 0.77%); assay type: functional
SMMC-7721 [17] = test: Induction of apoptosis in human SMMC7721 cells assessed as live cells at 0.36 uM after 24 hrs by Annexin V-APC/7-AAD staining based flow cytometry (reference value: 81.07%); assay type: functional
SMMC-7721 [18] = test: Induction of apoptosis in human SMMC7721 cells assessed as early apoptotic cells at 0.36 uM after 24 hrs by Annexin V-APC/7-AAD staining based flow cytometry (reference value: 7.44%); assay type: functional
SMMC-7721 [19] = test: Induction of apoptosis in human SMMC7721 cells assessed as late apoptotic cells at 0.36 uM after 24 hrs by Annexin V-APC/7-AAD staining based flow cytometry (reference value: 10.72%); assay type: functional
SMMC-7721 [20] = test: Induction of apoptosis in human SMMC7721 cells assessed as necrotic cells at 0.36 uM after 24 hrs by Annexin V-APC/7-AAD staining based flow cytometry (reference value: 0.77%); assay type: functional
SMMC-7721 [21] = test: Induction of apoptosis in human SMMC7721 cells assessed as live cells at 0.72 uM after 24 hrs by Annexin V-APC/7-AAD staining based flow cytometry (reference value: 81.07%); assay type: functional
SMMC-7721 [22] = test: Induction of apoptosis in human SMMC7721 cells assessed as early apoptotic cells at 0.72 uM after 24 hrs by Annexin V-APC/7-AAD staining based flow cytometry (reference value: 7.44%); assay type: functional
SMMC-7721 [23] = test: Induction of apoptosis in human SMMC7721 cells assessed as late apoptotic cells at 0.72 uM after 24 hrs by Annexin V-APC/7-AAD staining based flow cytometry (reference value: 10.72%); assay type: functional
SMMC-7721 [24] = test: Induction of apoptosis in human SMMC7721 cells assessed as necrotic cells at 0.72 uM after 24 hrs by Annexin V-APC/7-AAD staining based flow cytometry (reference value: 0.77%); assay type: functional

Work on `COC(=O)[C@]1(C)CCC[C@]2(C)c3cc(Br)c4nc(/N=C/c5ccc6ccccc6c5O)[nH]c4c3CC[C@@H]12` yielded an IC50 (SMMC-7721 [1]) of 2.08 µM, an IC50 (HepG2) of 1.08 µM and an IC50 (L02) of 10.8 µM.
`COC(=O)[C@]1(C)CCC[C@]2(C)c3cc(Br)c4nc(NCc5cc(C)ccc5O)[nH]c4c3CC[C@@H]12` gave an IC50 (SMMC-7721 [1]) of 0.83 µM, an IC50 (HepG2) of 6.22 µM and an IC50 (L02) of 17.3 µM.
In the case of `COC(=O)[C@]1(C)CCC[C@]2(C)c3cc(Br)c4nc(N)[nH]c4c3CC[C@@H]12`, the IC50 (SMMC-7721 [1]) is reported as 8.74 µM, the IC50 (HepG2) is reported as 15.3 µM and the IC50 (L02) is reported as greater than 50 µM.
For `COC(=O)[C@]1(C)CCC[C@]2(C)c3cc(Br)c4nc(NCc5cc(Cl)cc(Cl)c5O)[nH]c4c3CC[C@@H]12`, the IC50 (SMMC-7721 [1]) was 0.93 µM, the IC50 (HepG2) was 2.38 µM and the IC50 (L02) was 7.26 µM.
In the case of `COC(=O)[C@]1(C)CCC[C@]2(C)c3cc(Br)c4nc(NCc5cc(F)ccc5O)[nH]c4c3CC[C@@H]12`, the IC50 (SMMC-7721 [1]) is reported as 10.6 µM, the IC50 (HepG2) is reported as 4.6 µM and the IC50 (L02) is reported as 31.4 µM.
`COC(=O)[C@]1(C)CCC[C@]2(C)c3cc(Br)c4nc(NCc5cc([N+](=O)[O-])ccc5O)[nH]c4c3CC[C@@H]12` gave an IC50 (SMMC-7721 [1]) of 1.37 µM, an IC50 (HepG2) of 5.52 µM and an IC50 (L02) of 18.3 µM.
Compound `COC(=O)[C@]1(C)CCC[C@]2(C)c3cc(Br)c4nc(/N=C/c5ccc(F)cc5O)[nH]c4c3CC[C@@H]12` has an IC50 (SMMC-7721 [1]) of 12.2 µM, an IC50 (HepG2) of 1.24 µM and an IC50 (L02) of 19 µM.
In the case of `COC(=O)[C@]1(C)CCC[C@]2(C)c3cc(Br)c4nc(/N=C/c5cc(C)ccc5O)[nH]c4c3CC[C@@H]12`, the IC50 (SMMC-7721 [1]) is reported as 0.56 µM, the IC50 (HepG2) is reported as 0.12 µM and the IC50 (L02) is reported as 3.02 µM.
In the case of `COC(=O)[C@]1(C)CCC[C@]2(C)c3cc(Br)c4nc(/N=C/c5cc(F)ccc5O)[nH]c4c3CC[C@@H]12`, the Activity (SMMC-7721 [2]) is reported as 5.96%, the IC50 (SMMC-7721 [1]) is reported as 0.36 µM and the IC50 (HepG2) is reported as 0.61 µM. For the same compound, the IC50 (L02) was 3.89 µM, the Activity (SMMC-7721 [3]) was 76.93% and the Activity (SMMC-7721 [4]) was 17.11%. The Activity (SMMC-7721 [5]) was 73.94%, the Activity (SMMC-7721 [6]) was 19.61% and the Activity (SMMC-7721 [7]) was 6.45%. It also gave an Activity (SMMC-7721 [8]) of 66.4%, an Activity (SMMC-7721 [9]) of 22.69% and an Activity (SMMC-7721 [10]) of 10.91%. The Activity (SMMC-7721 [11]) was “Dose-dependent effect”, the Activity (SMMC-7721 [12]) was “Dose-dependent effect” and the Activity (SMMC-7721 [13]) was 75.91%. It also gave an Activity (SMMC-7721 [14]) of 12.71%, an Activity (SMMC-7721 [15]) of 10.44% and an Activity (SMMC-7721 [16]) of 0.95%. The Activity (SMMC-7721 [17]) was 59.86%, the Activity (SMMC-7721 [18]) was 29.05% and the Activity (SMMC-7721 [19]) was 10.21%. It also gave an Activity (SMMC-7721 [20]) of 0.87%, an Activity (SMMC-7721 [21]) of 7.97% and an Activity (SMMC-7721 [22]) of 9.75%. It also gave an Activity (SMMC-7721 [23]) of 81.27% and an Activity (SMMC-7721 [24]) of 1%.
Work on `COC(=O)[C@]1(C)CCC[C@]2(C)c3cc(Br)c4nc(/N=C/c5cccc(F)c5O)[nH]c4c3CC[C@@H]12` yielded an IC50 (SMMC-7721 [1]) of 2 µM, an IC50 (HepG2) of 0.43 µM and an IC50 (L02) of 8.35 µM.
In the case of `COC(=O)[C@]1(C)CCC[C@]2(C)c3cc(Br)c4nc(/N=C/c5cc(Cl)cc(Cl)c5O)[nH]c4c3CC[C@@H]12`, the IC50 (SMMC-7721 [1]) is reported as 1.72 µM, the IC50 (HepG2) is reported as 0.69 µM and the IC50 (L02) is reported as 7.21 µM.
With `COC(=O)[C@]1(C)CCC[C@]2(C)c3cc(Br)c4nc(NCc5ccc(F)cc5O)[nH]c4c3CC[C@@H]12` the IC50 (SMMC-7721 [1]) was 10.6 µM, the IC50 (HepG2) was 4.6 µM and the IC50 (L02) was 22.1 µM.
For `COC(=O)[C@]1(C)CCC[C@]2(C)c3cc(Br)c4nc(/N=C/c5cc([N+](=O)[O-])ccc5O)[nH]c4c3CC[C@@H]12`, the IC50 (SMMC-7721 [1]) was 1.28 µM, the IC50 (HepG2) was 2.4 µM and the IC50 (L02) was 8.71 µM.
